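48-hour exposure; five concentrations; linearly interpolated endpoints. The concentration for 50% growth inhibition is given as GI50.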 Calls of active or inactive are those of the source. Cut-off read from the data, not from the text of the source: active = GI50 up to about 1.1 µM and inactive = higher.
How the values were obtained:
Assay in all cases: DTP human tumour cell line panel, 48 h
UACC-257 = test system: UACC-257
PC-3 = test system: PC-3
CCRF-CEM = test system: CCRF-CEM
MDA-N = test system: MDA-N
SW-620 = test system: SW-620
OVCAR-4 = test system: OVCAR-4
CAKI-1 = test system: CAKI-1
Malme-3M = test system: Malme-3M
MOLT-4 = test system: MOLT-4
DU-145 = test system: DU-145
NCI-H23 = test system: NCI-H23
HCC 2998 = test system: HCC 2998
HT-29 = test system: HT-29
Hs-578T = test system: Hs-578T
NCI-H460 = test system: NCI-H460
SF-295 = test system: SF-295
HL-60 = test system: HL-60
SK-MEL-28 = test system: SK-MEL-28
SK-OV-3 = test system: SK-OV-3
COLO 205 = test system: COLO 205
UO-31 = test system: UO-31
OVCAR-8 = test system: OVCAR-8
HCT-116 = test system: HCT-116
HOP-92 = test system: HOP-92
SNB-75 = test system: SNB-75
BT-549 = test system: BT-549
UACC-62 = test system: UACC-62
RXF 393 = test system: RXF 393
SK-MEL-5 = test system: SK-MEL-5
MDA-MB-435 = test system: MDA-MB-435
M14 = test system: M14
SF-268 = test system: SF-268
MCF7 = test system: MCF7
MDA-MB-231 = test system: MDA-MB-231
T47D = test system: T47D
ACHN = test system: ACHN
RPMI-8226 = test system: RPMI-8226
SNB-19 = test system: SNB-19
HCT-15 = test system: HCT-15
IGROV-1 = test system: IGROV-1
OVCAR-3 = test system: OVCAR-3
HOP-62 = test system: HOP-62
NCI-H522 = test system: NCI-H522
786-0 = test system: 786-0
A498 = test system: A498
U-251 = test system: U-251
NCI/ADR-RES = test system: NCI/ADR-RES
KM12 = test system: KM12
EKVX = test system: EKVX
TK-10 = test system: TK-10
A549 = test system: A549
SN12C = test system: SN12C
OVCAR-5 = test system: OVCAR-5
NCI-H226 = test system: NCI-H226
SK-MEL-2 = test system: SK-MEL-2
K562 = test system: K562
SF-539 = test system: SF-539
LOX IMVI = test system: LOX IMVI

CN(C)c1ccc(/C=C2\N=C(N/N=C/c3ccccc3)NC2=O)cc1 was tested, and the GI50 (UACC-257) was > 100 µM (inactive), the GI50 (PC-3) was 75.3 µM (inactive) and the GI50 (CCRF-CEM) was 35.2 µM (inactive). For the same compound, the GI50 (MDA-N) was 33.4 µM (inactive), the GI50 (SW-620) was 67.9 µM (inactive) and the GI50 (OVCAR-4) was 60.1 µM (inactive). For the same compound, the GI50 (CAKI-1) was > 100 µM (inactive), the GI50 (Malme-3M) was 69.5 µM (inactive) and the GI50 (MOLT-4) was 26.8 µM (inactive). The GI50 (DU-145) was 58.7 µM (inactive), the GI50 (NCI-H23) was 50.6 µM (inactive) and the GI50 (HCC 2998) was 42.1 µM (inactive). The GI50 (HT-29) was 40.6 µM (inactive), the GI50 (Hs-578T) was 43 µM (inactive) and the GI50 (NCI-H460) was 49.9 µM (inactive). The GI50 (SF-295) was 69.5 µM (inactive), the GI50 (HL-60) was > 100 µM (inactive) and the GI50 (SK-MEL-28) was > 100 µM (inactive). The GI50 (SK-OV-3) was > 100 µM (inactive), the GI50 (COLO 205) was 47.1 µM (inactive) and the GI50 (UO-31) was > 100 µM (inactive). The GI50 (OVCAR-8) was 26.3 µM (inactive), the GI50 (HCT-116) was 83.6 µM (inactive) and the GI50 (HOP-92) was 26.4 µM (inactive). For the same compound, the GI50 (SNB-75) was 81.1 µM (inactive), the GI50 (BT-549) was > 100 µM (inactive) and the GI50 (UACC-62) was 79.8 µM (inactive). The GI50 (RXF 393) was 20.2 µM (inactive), the GI50 (SK-MEL-5) was 41.1 µM (inactive) and the GI50 (MDA-MB-435) was 33 µM (inactive). The GI50 (M14) was 89.7 µM (inactive), the GI50 (SF-268) was 66.5 µM (inactive) and the GI50 (MCF7) was 56.1 µM (inactive). For the same compound, the GI50 (MDA-MB-231) was > 100 µM (inactive), the GI50 (T47D) was 56.4 µM (inactive) and the GI50 (ACHN) was > 100 µM (inactive). The GI50 (RPMI-8226) was 28.8 µM (inactive), the GI50 (SNB-19) was > 100 µM (inactive) and the GI50 (HCT-15) was 33.4 µM. For the same compound, the GI50 (IGROV-1) was 44.9 µM (inactive), the GI50 (OVCAR-3) was > 100 µM (inactive) and the GI50 (HOP-62) was > 100 µM (inactive). The GI50 (NCI-H522) was 32.2 µM (inactive), the GI50 (786-0) was 44.2 µM (inactive) and the GI50 (A498) was > 100 µM (inactive). The GI50 (U-251) was 60.5 µM (inactive), the GI50 (NCI/ADR-RES) was 29.1 µM (inactive) and the GI50 (KM12) was 52.6 µM (inactive). The GI50 (EKVX) was > 100 µM (inactive), the GI50 (TK-10) was > 100 µM (inactive) and the GI50 (A549) was 36.7 µM (inactive). For the same compound, the GI50 (SN12C) was > 100 µM (inactive), the GI50 (OVCAR-5) was > 100 µM (inactive) and the GI50 (NCI-H226) was > 100 µM (inactive). For the same compound, the GI50 (SK-MEL-2) was > 100 µM (inactive).

In the case of ClC(Cl)(Cl)C1CCOC1n1nnc2ccccc21 (stereo not given), the GI50 (UACC-257) is reported as > 100 µM (inactive), the GI50 (PC-3) is reported as > 100 µM (inactive) and the GI50 (CCRF-CEM) is reported as 44.1 µM (inactive). The GI50 (MDA-N) was > 100 µM (inactive), the GI50 (CAKI-1) was > 100 µM (inactive) and the GI50 (Malme-3M) was > 100 µM (inactive). The GI50 (K562) was 24.1 µM (inactive), the GI50 (MOLT-4) was 21.9 µM (inactive) and the GI50 (DU-145) was > 100 µM (inactive). The GI50 (NCI-H23) was 24.3 µM (inactive), the GI50 (HCC 2998) was > 100 µM (inactive) and the GI50 (HT-29) was 73.5 µM (inactive). For the same compound, the GI50 (Hs-578T) was 89.7 µM (inactive), the GI50 (SF-295) was > 100 µM (inactive) and the GI50 (HL-60) was 11.9 µM (inactive). For the same compound, the GI50 (SK-OV-3) was > 100 µM (inactive), the GI50 (COLO 205) was > 100 µM (inactive) and the GI50 (OVCAR-8) was > 100 µM (inactive). The GI50 (HCT-116) was 92.9 µM (inactive), the GI50 (SNB-75) was 1.2 µM (inactive) and the GI50 (BT-549) was 25.9 µM (inactive). The GI50 (UACC-62) was > 100 µM (inactive), the GI50 (RXF 393) was > 100 µM (inactive) and the GI50 (SK-MEL-5) was 45.2 µM (inactive). The GI50 (MDA-MB-435) was > 100 µM (inactive), the GI50 (M14) was > 100 µM (inactive) and the GI50 (SF-268) was > 100 µM (inactive). The GI50 (MCF7) was > 100 µM (inactive), the GI50 (MDA-MB-231) was > 100 µM (inactive) and the GI50 (T47D) was > 100 µM (inactive). For the same compound, the GI50 (IGROV-1) was > 100 µM (inactive), the GI50 (OVCAR-3) was > 100 µM (inactive) and the GI50 (HOP-62) was > 100 µM (inactive). The GI50 (NCI-H522) was 82.4 µM (inactive), the GI50 (786-0) was > 100 µM (inactive) and the GI50 (A498) was > 100 µM (inactive). For the same compound, the GI50 (U-251) was 90.4 µM (inactive), the GI50 (NCI/ADR-RES) was 42.2 µM (inactive) and the GI50 (EKVX) was > 100 µM (inactive). The GI50 (TK-10) was > 100 µM (inactive), the GI50 (A549) was 63 µM (inactive) and the GI50 (SN12C) was > 100 µM (inactive). For the same compound, the GI50 (OVCAR-5) was > 100 µM (inactive), the GI50 (SF-539) was > 100 µM (inactive) and the GI50 (NCI-H226) was > 100 µM (inactive). For the same compound, the GI50 (SK-MEL-2) was > 100 µM (inactive).

CC(O)CN1c2ccccc2Sc2ccccc21 (stereo not given) was tested, and the GI50 (UACC-257) was > 100 µM (inactive), the GI50 (PC-3) was > 100 µM (inactive) and the GI50 (CCRF-CEM) was > 100 µM (inactive). For the same compound, the GI50 (MDA-N) was > 100 µM (inactive), the GI50 (SW-620) was > 100 µM (inactive) and the GI50 (OVCAR-4) was > 100 µM (inactive). The GI50 (CAKI-1) was > 100 µM (inactive), the GI50 (Malme-3M) was > 100 µM (inactive) and the GI50 (K562) was > 100 µM (inactive). The GI50 (MOLT-4) was > 100 µM (inactive), the GI50 (DU-145) was > 100 µM (inactive) and the GI50 (NCI-H23) was > 100 µM (inactive). The GI50 (HCC 2998) was > 100 µM (inactive), the GI50 (HT-29) was > 100 µM (inactive) and the GI50 (Hs-578T) was > 100 µM (inactive). The GI50 (NCI-H460) was > 100 µM (inactive), the GI50 (SF-295) was > 100 µM (inactive) and the GI50 (SK-MEL-28) was > 100 µM (inactive). The GI50 (SK-OV-3) was > 100 µM (inactive), the GI50 (COLO 205) was > 100 µM (inactive) and the GI50 (UO-31) was > 100 µM (inactive). For the same compound, the GI50 (LOX IMVI) was > 100 µM (inactive), the GI50 (OVCAR-8) was > 100 µM (inactive) and the GI50 (HCT-116) was > 100 µM (inactive). For the same compound, the GI50 (HOP-92) was > 100 µM (inactive), the GI50 (BT-549) was > 100 µM (inactive) and the GI50 (UACC-62) was > 100 µM (inactive). For the same compound, the GI50 (RXF 393) was > 100 µM (inactive), the GI50 (SK-MEL-5) was > 100 µM (inactive) and the GI50 (MDA-MB-435) was > 100 µM (inactive). For the same compound, the GI50 (M14) was > 100 µM (inactive), the GI50 (SF-268) was > 100 µM (inactive) and the GI50 (MCF7) was > 100 µM (inactive). For the same compound, the GI50 (MDA-MB-231) was > 100 µM (inactive), the GI50 (T47D) was > 100 µM (inactive) and the GI50 (ACHN) was > 100 µM (inactive). For the same compound, the GI50 (SNB-19) was > 100 µM (inactive), the GI50 (HCT-15) was > 100 µM and the GI50 (IGROV-1) was > 100 µM (inactive). For the same compound, the GI50 (OVCAR-3) was > 100 µM (inactive), the GI50 (HOP-62) was > 100 µM (inactive) and the GI50 (NCI-H522) was > 100 µM (inactive). The GI50 (786-0) was > 100 µM (inactive), the GI50 (A498) was > 100 µM (inactive) and the GI50 (U-251) was > 100 µM (inactive). For the same compound, the GI50 (NCI/ADR-RES) was > 100 µM (inactive), the GI50 (KM12) was > 100 µM (inactive) and the GI50 (EKVX) was > 100 µM (inactive). For the same compound, the GI50 (TK-10) was > 100 µM (inactive), the GI50 (A549) was > 100 µM (inactive) and the GI50 (SN12C) was > 100 µM (inactive). The GI50 (OVCAR-5) was > 100 µM (inactive), the GI50 (SF-539) was > 100 µM (inactive) and the GI50 (NCI-H226) was > 100 µM (inactive).

Reference: ChEMBL document CHEMBL1201862, “PubChem BioAssay data set” (2004)
